Assays:
Assay type in all cases: in vivo
Botrytis cinerea [1] = experiment: Example B-7: Botrytis cinerea / grape (Botrytis on grapes); settings: 72 h, 0.02% active substance, spray, grape seedlings cv. Gutedel, inoculated two days after application, assessed after 3 days incubation, read-out: control of the fungal infection
Description: Botrytis cinerea/Grape (Botrytis on Grapes) 5 week old grape seedlings cv. Gutedel are treated with the formulated test compound (0.02% active substance) in a spray chamber. Two days after application grape plants are inoculated by spraying a spore suspension (1.5×10^5 conidia/ml) on the test plants. After an incubation period of 3 days at +21° C. and 95% r. h. in a greenhouse the disease incidence is assessed.

Septoria nodorum = experiment: Example B-12: effect against Septoria nodorum / wheat (Septoria leaf spot on wheat); settings: Parastagonospora nodorum, 192 h; 0.02% active substance, spray; wheat cv. Arina; inoculated one day after application; assessed 8 days after inoculation; read-out: control of the fungal infection
Description: Effect Against Septoria nodorum/Wheat (Septoria Leaf Spot on Wheat) 1 week old wheat plants cv. Arina are treated with a formulated test compound (0.02% active substance) in a spray chamber. One day after application wheat plants are inoculated by spraying a spore suspension (6×10^5 conidia/ml) on the test plants. After an incubation period of 1 day at +22° C. and 95% r.h. plants are kept for 7 days at +22° C. and 60% r.h. in a greenhouse. The disease incidence is assessed 8 days after inoculation.

[2] = system: Pyrenophora teres (Helminthosorium); experiment: Example B-10: effect against Pyrenophora teres (Helminthosorium) / barley (net blotch on barley); settings: 48 h, 0.02% active substance, spray, barley cv. Regina, inoculated two days after application, assessed after 2 days incubation, read-out: control of the fungal infection
Description: Effect Against Pyrenophora teres (Helminthosorium)/Barley (Net Blotch on Barley) 1 week old barley plants cv. Regina are treated with a formulated test compound (0.02% active substance) in a spray chamber. Two days. after application barley plants are inoculated by spraying a spore suspension (3×10^4 conidia/ml) on the test plants. After an incubation period of 2 days at +20° C. and 95% r.h. the disease incidence is assessed.

Botrytis cinerea [3] = experiment: Example B-8: effect against Botrytis cinerea / tomato (Botrytis on tomatoes); settings: 96 h, 0.02% active substance, spray, tomato cv. Roter Gnom, inoculated two days after application, assessed after 4 days incubation, read-out: control of the fungal infection
Description: Effect Against Botrytis cinerea/Tomato (Botrytis on Tomatoes) 4 week old tomato plants cv. Roter Gnom are treated with the formulated test compound 0.02% active substance) in a spray chamber. Two days after application tomato plants are inoculated by spraying a spore suspension (1×10^5 conidia/ml) on the test plants. After an incubation period of 4 days at +20° C. and 95% r. h. in a greenhouse the disease incidence is assessed.

Row | Structure (SMILES) | pest or weed control at 0.02 % strength (Botrytis cinerea [1]) [%] | pest or weed control at 0.02 % strength (Septoria nodorum) [%] | pest or weed control at 0.02 % strength [2] [%] | pest or weed control at 0.02 % strength (Botrytis cinerea [3]) [%]
1 | CC1=NN(c2cc(-c3ccnc(Nc4cccc(Cl)c4)n3)ccn2)C(=O)C1(C)C [1.01/028, 2-{4-[2-(3-Chloro-phenylamino)-pyrimidin-4-yl]-pyridin-2-yl}-4,4,5-trimethyl-2,4-dihydro-pyrazol-3-one] | > 70 | > 70 | > 70 | > 70
2 | CCC1(C)C(=O)N(c2cc(-c3ccnc(Nc4cccc(Cl)c4)n3)ccn2)N=C1C (stereo not shown) [1.03/028, 2-{4-[2-(3-Chloro-phenylamino)-pyrimidin-4-yl]-pyridin-2-yl}-4-ethyl-4,5-dimethyl-2,4-dihydro-pyrazol-3-one] | > 70 | > 70 | > 70 | –
3 | CC1=NN(c2cc(-c3ccnc(Nc4cccc(Cl)c4)n3)ccn2)C(=O)C12CC2 [1.04/028, 5-{4-[2-(3-Chloro-phenylamino)-pyrimidin-4-yl]-pyridin-2-yl}-7-methyl-5,6-diaza-spiro[2.4]hept-6-en-4-one] | > 70 | – | > 70 | > 70
4 | CC1=NN(c2cc(-c3ccnc(Nc4cccc(Cl)c4)n3)ccn2)C(=S)C1(C)C [1.06/028, 2-{4-[2-(3-Chloro-phenylamino)-pyrimidin-4-yl]-pyridin-2-yl}-4,4,5-trimethyl-2,4-dihydro-pyrazole-3-thione] | > 70 | > 70 | > 70 | > 70
5 | CC1(C)C=NN(c2cc(-c3ccnc(Nc4cccc(Cl)c4)n3)ccn2)C1=O [1.07/028, 2-{4-[2-(3-Chloro-phenylamino)-pyrimidin-4-yl]-pyridin-2-yl}-4,4-dimethyl-2,4-dihydro-pyrazol-3-one] | > 70 | > 70 | > 70 | –
6 | COCC1=NN(c2cc(-c3ccnc(Nc4cccc(Cl)c4)n3)ccn2)C(=O)C1(C)C [1.08/028, 2-{4-[2-(3-Chloro-phenylamino)-pyrimidin-4-yl]-pyridin-2-yl}-5-methoxymethyl-4,4-dimethyl-2,4-dihydro-pyrazol-3-one] | – | – | > 70 | –
7 | Cc1c(C)n(C)n(-c2cc(-c3ccnc(Nc4cccc(Cl)c4)n3)ccn2)c1=O [2.02/028, 2-{4-[2-(3-Chloro-phenylamino)-pyrimidin-4-yl]-pyridin-2-yl}-1,4,5-trimethyl-1,2-dihydro-pyrazol-3-one] | – | > 70 | > 70 | > 70
8 | Cc1cc(=O)n(-c2cc(-c3ccnc(Nc4cccc(Cl)c4)n3)ccn2)n1C [2.03/028, 2-{4-[2-(3-Chloro-phenylamino)-pyrimidin-4-yl]-pyridin-2-yl}-1,5-dimethyl-1,2-dihydro-pyrazol-3-one] | > 70 | > 70 | > 70 | –
9 | Cc1c(C=O)c(=O)n(-c2cc(-c3ccnc(Nc4cccc(Cl)c4)n3)ccn2)n1C [2.04/028, 2-{4-[2-(3-Chloro-phenylamino)-pyrimidin-4-yl]-pyridin-2-yl}-1,5-dimethyl-3-oxo-2,3-dihydro-1H-pyrazole-4-carbaldehyde] | – | > 70 | – | –
10 | Cc1cn(C)n(-c2cc(-c3ccnc(Nc4cccc(Cl)c4)c3)ccn2)c1=O [2.05/028, 2-{4-[2-(3-Chloro-phenylamino)-pyridin-4-yl]-pyridin-2-yl}-1,4-dimethyl-1,2-dihydro-pyrazol-3-one] | > 70 | > 70 | > 70 | > 70
11 | CCn1c(C)c(C)c(=O)n1-c1cc(-c2ccnc(Nc3cccc(Cl)c3)c2)ccn1 [2.06/028, 2-{4-[2-(3-Chloro-phenylamino)-pyridin-4-yl]-pyridin-2-yl}-1-ethyl-4,5-dimethyl-1,2-dihydro-pyrazol-3-one] | – | > 70 | – | > 70
12 | COCN(c1cccc(Cl)c1)c1nccc(-c2ccnc(-n3c(=O)cc(C)n3C)c2)n1 [2.08/048, 2-(4-{2-[(3-Chloro-phenyl)-methoxymethyl-amino]-pyrimidin-4-yl}-pyridin-2-yl)-1,5-dimethyl-1,2-dihydro-pyrazol-3-one] | > 70 | – | > 70 | > 70
13 | COCc1c(C)c(=O)n(-c2cc(-c3ccnc(Nc4cccc(Cl)c4)n3)ccn2)n1C [2.09/028, 2-{4-[2-(3-Chloro-phenylamino)-pyrimidin-4-yl]-pyridin-2-yl}-5-methoxymethyl-1,4-dimethyl-1,2-dihydro-pyrazol-3-one] | > 70 | > 70 | > 70 | –
14 | COCc1cc(=O)n(-c2cc(-c3ccnc(Nc4cccc(Cl)c4)n3)ccn2)n1C [2.011/028, 2-{4-[2-(3-Chloro-phenylamino)-pyrimidin-4-yl]-pyridin-2-yl}-5-methoxymethyl-1-methyl-1,2-dihydro-pyrazol-3-one] | – | – | > 70 | –
15 | COc1cc(C)nn1-c1cc(-c2ccnc(Nc3cccc(Cl)c3)n2)ccn1 [3.01/028, (3-Chloro-phenyl)-{4-[2-(5-methoxy-3-methyl-pyrazol-1-yl)-pyridin-4-yl]-pyrimidin-2-yl}-amine] | – | > 70 | > 70 | > 70
16 | COc1c(C)cnn1-c1cc(-c2ccnc(Nc3cccc(Cl)c3)n2)ccn1 [3.012/028, (3-Chloro-phenyl)-{4-[2-(5-methoxy-4-methyl-pyrazol-1-yl)-pyridin-4-yl]-pyrimidin-2-yl}-amine] | > 70 | > 70 | > 70 | –
17 | COCc1nn(-c2cc(-c3ccnc(Nc4cccc(Cl)c4)n3)ccn2)c(OC)c1C [3.013/028, (3-Chloro-phenyl)-{4-[2-(5-methoxy-3-methoxymethyl-4-methyl-pyrazol-1-yl)-pyridin-4-yl]-pyrimidin-2-yl}-amine] | > 70 | – | > 70 | –
18 | COCc1cc(OC)n(-c2cc(-c3ccnc(Nc4cccc(Cl)c4)n3)ccn2)n1 [3.014/028, (3-Chloro-phenyl)-{4-[2-(5-methoxy-3-methoxymethyl-pyrazol-1-yl)-pyridin-4-yl]-pyrimidin-2-yl}-amine] | > 70 | – | > 70 | –
19 | Cc1nn(-c2cc(-c3ccnc(Nc4cccc(Cl)c4)n3)ccn2)c(C)c1C [3.017/028, (3-Chloro-phenyl)-{4-[2-(3,4,5-trimethyl-pyrazol-1-yl)-pyridin-4-yl]-pyrimidin-2-yl}-amine] | – | – | > 70 | –
